Test: Accelerated stability test (50° C.) with pH stability test of sucralose sample solution
Format: physicochemical
Details: for Days to pH Failure / Ph Stability / Days to pH Failure (Final Product Moisture Content) / Days to pH Failure (Initial Moisture Content): 50° C.; for Days to pH Failure: WHIRLPAK polyethylene bags, failure = pH drop ≧1.0; for Initial pH: sample solution (5 g in 50 ml pH-adjusted water) at time zero; for Initial pH difference: sample solution vs pH-adjusted water at time zero; for stability at intermediate moisture contents compared with final moisture levels: crystallized with no pH control, intermediate moisture 3 to 5% vs final 0.05, 0.11, 0.21%; for Days to pH Failure (Final Product Moisture Content): final dried product; for Days to pH Failure (Final Product Moisture Content) / Days to pH Failure (Initial Moisture Content): Example 3; for Days to pH Failure (Initial Moisture Content): partially dried product at intermediate (initial) moisture content
Source text: Label seven 6 oz. and seven 18 oz. WHIRLPAK® polyethylene bags with indelible marker for each batch being tested for stability. Accurately weigh 25 g±0.01 g of sucralose into each 6 oz. WHIRLPAK® polyethylene bag. Heat or impulse seal the 6 oz. bag to ensure air tightness. Cut off any excess polyethylene at the top of the bag above the seal. Place the 6 oz. sealed bag into the 18 oz. bag and heat or impulse seal the 18 oz. bag to ensure air tightness. Roll down the top of the 18 oz. bag above the seal and bend the metal ties to form hooks.
Place the prepared bags into an oven stabilized at 50° C.±0.5° C. by hanging them from racks by the bag hooks. The bags must be freely suspended and not touch anything. Record the time samples are placed into the oven.
The pH stability test is conducted on the sucralose at time zero (the day the samples are placed in the oven, before the sucralose is exposed to elevated temperature) and every 24 hours until the batch being tested fails the test.
Place approximately 100 ml of deionized water into a 150 ml beaker. Using 0.1 N hydrochloric acid and/or 0.1 N sodium hydroxide, adjust the pH of the water to be between 5.8 and 6.0. Record the pH reading.
Accurately weigh 5 g±0.001 g of the product to be tested and transfer it to a 50 ml volumetric flask. Dissolve and bring to the mark by adding pH-adjusted water. If the sample to be tested is one that has been exposed to heat, remove one bag of the batch being tested from the oven and allow it to cool to room temperature before opening and sampling.
Pour the solution into a 100 ml beaker containing a stir bar, and slowly stir the solution on a magnetic stirrer. Immerse the pH electrode in the sample, allow the pH reading to stabilize, and record the pH reading of the sample. If no pH drop is observed after all the bags have been tested, the experiment is void and the test must repeated with a larger number of bags.
Record (to one decimal place) the pH of both the pH-adjusted water used and the sample sucralose solution. Subtract the pH of the […]. Report the result as (−) for a pH drop and (+) for a pH gain, e.g.:
The sample fails the test if there is a pH drop of 1.0 pH unit or more. The pH stability of the batch is defined as the number of days until the pH drop between the sample solution and that of the pH adjusted water is ≧1.0.
Samples of sucralose were tested for stability using the above procedures, but using bags of different moisture permeability. All other experimental details were the same. The TYVEK®/polyethylene bags are permeable; the WHIRLPAK® bags are less permeable. The A8080 bag consists of aluminum foil laminated to low-density polyethylene, which makes it very impermeable to moisture.

[1] = Example 1, sodium acetate in mother liquor varied
[2] = (−) pH drop, (+) pH gain, Example 1
[3] = Example 2, pH at crystallizer varied

Row | Structure (SMILES) | Days to pH Failure [1] [Days] | Initial pH [1] | Initial pH difference [2] | Days to pH Failure [3] [Days] | Initial pH difference [3] | further results
1 | OC[C@H]1O[C@H](O[C@]2(CCl)O[C@H](CCl)[C@@H](O)[C@@H]2O)[C@H](O)[C@@H](O)[C@H]1Cl [Sample 20, 4,1′,6′-trichloro-4,1′,6′-trideoxy-galactosucrose] | 6 | 6.09 | +0.08 | – | – | –
2 | OC[C@H]1O[C@H](O[C@]2(CCl)O[C@H](CCl)[C@@H](O)[C@@H]2O)[C@H](O)[C@@H](O)[C@H]1Cl [Sample 19, 4,1′,6′-trichloro-4,1′,6′-trideoxy-galactosucrose] | 6 | 6.06 | +0.13 | – | – | –
3 | OC[C@H]1O[C@H](O[C@]2(CCl)O[C@H](CCl)[C@@H](O)[C@@H]2O)[C@H](O)[C@@H](O)[C@H]1Cl [Sample 47, 4,1′,6′-trichloro-4,1′,6′-trideoxy-galactosucrose] | – | – | – | – | – | Ph Stability (package A8080 (aluminum foil laminated to low-density polyethylene), impermeable): 33 days; Ph Stability (package FF 91 TYVEK/Polyethylene, very permeable): 4 days
4 | OC[C@H]1O[C@H](O[C@]2(CCl)O[C@H](CCl)[C@@H](O)[C@@H]2O)[C@H](O)[C@@H](O)[C@H]1Cl [Sample 10, 4,1′,6′-trichloro-4,1′,6′-trideoxy-galactosucrose] | 5 | 5.90 | −0.05 | – | – | –
5 | OC[C@H]1O[C@H](O[C@]2(CCl)O[C@H](CCl)[C@@H](O)[C@@H]2O)[C@H](O)[C@@H](O)[C@H]1Cl [Sample 12, 4,1′,6′-trichloro-4,1′,6′-trideoxy-galactosucrose] | 6 | 5.85 | −0.10 | – | – | –
6 | OC[C@H]1O[C@H](O[C@]2(CCl)O[C@H](CCl)[C@@H](O)[C@@H]2O)[C@H](O)[C@@H](O)[C@H]1Cl [Sample 14, 4,1′,6′-trichloro-4,1′,6′-trideoxy-galactosucrose] | 6 | 5.95 | +0.02 | – | – | –
7 | OC[C@H]1O[C@H](O[C@]2(CCl)O[C@H](CCl)[C@@H](O)[C@@H]2O)[C@H](O)[C@@H](O)[C@H]1Cl [Sample 3, 4,1′,6′-trichloro-4,1′,6′-trideoxy-galactosucrose] | 6 | 5.44 | −0.48 | – | – | –
8 | OC[C@H]1O[C@H](O[C@]2(CCl)O[C@H](CCl)[C@@H](O)[C@@H]2O)[C@H](O)[C@@H](O)[C@H]1Cl [Sample 15, 4,1′,6′-trichloro-4,1′,6′-trideoxy-galactosucrose] | 5 | 6.06 | +0.13 | – | – | –
9 | OC[C@H]1O[C@H](O[C@]2(CCl)O[C@H](CCl)[C@@H](O)[C@@H]2O)[C@H](O)[C@@H](O)[C@H]1Cl [Sample 22, 4,1′,6′-trichloro-4,1′,6′-trideoxy-galactosucrose] | 6 | 6.08 | +0.09 | – | – | –
10 | OC[C@H]1O[C@H](O[C@]2(CCl)O[C@H](CCl)[C@@H](O)[C@@H]2O)[C@H](O)[C@@H](O)[C@H]1Cl [Sample 17, 4,1′,6′-trichloro-4,1′,6′-trideoxy-galactosucrose] | 6 | 6.03 | +0.10 | – | – | –
11 | OC[C@H]1O[C@H](O[C@]2(CCl)O[C@H](CCl)[C@@H](O)[C@@H]2O)[C@H](O)[C@@H](O)[C@H]1Cl [Sample 16, 4,1′,6′-trichloro-4,1′,6′-trideoxy-galactosucrose] | 6 | 6.20 | +0.27 | – | – | –
12 | OC[C@H]1O[C@H](O[C@]2(CCl)O[C@H](CCl)[C@@H](O)[C@@H]2O)[C@H](O)[C@@H](O)[C@H]1Cl [Sample 26, 4,1′,6′-trichloro-4,1′,6′-trideoxy-galactosucrose] | 6 | 6.06 | +0.10 | – | – | –

Continued, in another order:

Row | Days to pH Failure [1] [Days] | Initial pH [1] | Initial pH difference [2] | Days to pH Failure [3] [Days] | Initial pH difference [3] | Structure (SMILES) | further results
13 | – | – | – | 4 | −0.94 | OC[C@H]1O[C@H](O[C@]2(CCl)O[C@H](CCl)[C@@H](O)[C@@H]2O)[C@H](O)[C@@H](O)[C@H]1Cl [Sample 33, 4,1′,6′-trichloro-4,1′,6′-trideoxy-galactosucrose] | stability at intermediate moisture contents compared with final moisture levels: less stable at intermediate moisture contents (3 to 5%) than they were at their final moisture levels
14 | 5 | 5.95 | −0.02 | – | – | OC[C@H]1O[C@H](O[C@]2(CCl)O[C@H](CCl)[C@@H](O)[C@@H]2O)[C@H](O)[C@@H](O)[C@H]1Cl [Sample 30, 4,1′,6′-trichloro-4,1′,6′-trideoxy-galactosucrose] | –
15 | – | – | – | 5 | +0.40 | OC[C@H]1O[C@H](O[C@]2(CCl)O[C@H](CCl)[C@@H](O)[C@@H]2O)[C@H](O)[C@@H](O)[C@H]1Cl [Sample 41, 4,1′,6′-trichloro-4,1′,6′-trideoxy-galactosucrose] | Days to pH Failure (Final Product Moisture Content): 5 Days; Days to pH Failure (Initial Moisture Content): 12 Days
16 | – | – | – | 6 | −0.18 | OC[C@H]1O[C@H](O[C@]2(CCl)O[C@H](CCl)[C@@H](O)[C@@H]2O)[C@H](O)[C@@H](O)[C@H]1Cl [Sample 44, 4,1′,6′-trichloro-4,1′,6′-trideoxy-galactosucrose] | –
17 | – | – | – | 7 | +0.40 | OC[C@H]1O[C@H](O[C@]2(CCl)O[C@H](CCl)[C@@H](O)[C@@H]2O)[C@H](O)[C@@H](O)[C@H]1Cl [Sample 40, 4,1′,6′-trichloro-4,1′,6′-trideoxy-galactosucrose] | Days to pH Failure (Final Product Moisture Content): 7 Days; Days to pH Failure (Initial Moisture Content): 13 Days
18 | – | – | – | 6 | +0.17 | OC[C@H]1O[C@H](O[C@]2(CCl)O[C@H](CCl)[C@@H](O)[C@@H]2O)[C@H](O)[C@@H](O)[C@H]1Cl [Sample 38, 4,1′,6′-trichloro-4,1′,6′-trideoxy-galactosucrose] | Days to pH Failure (Final Product Moisture Content): 6 Days; Days to pH Failure (Initial Moisture Content): 23 Days
19 | – | – | – | 5 | +0.17 | OC[C@H]1O[C@H](O[C@]2(CCl)O[C@H](CCl)[C@@H](O)[C@@H]2O)[C@H](O)[C@@H](O)[C@H]1Cl [Sample 42, 4,1′,6′-trichloro-4,1′,6′-trideoxy-galactosucrose] | Days to pH Failure (Final Product Moisture Content): 5 Days; Days to pH Failure (Initial Moisture Content): 9 Days
20 | – | – | – | 5 | −0.06 | OC[C@H]1O[C@H](O[C@]2(CCl)O[C@H](CCl)[C@@H](O)[C@@H]2O)[C@H](O)[C@@H](O)[C@H]1Cl [Sample 37, 4,1′,6′-trichloro-4,1′,6′-trideoxy-galactosucrose] | Days to pH Failure (Final Product Moisture Content): 5 Days; Days to pH Failure (Initial Moisture Content): 21 Days
21 | – | – | – | 3 | −0.90 | OC[C@H]1O[C@H](O[C@]2(CCl)O[C@H](CCl)[C@@H](O)[C@@H]2O)[C@H](O)[C@@H](O)[C@H]1Cl [Sample 32, 4,1′,6′-trichloro-4,1′,6′-trideoxy-galactosucrose] | stability at intermediate moisture contents compared with final moisture levels: less stable at intermediate moisture contents (3 to 5%) than they were at their final moisture levels
